ChEMBL document CHEMBL5653631, “A Potent and Selective ULK1 Inhibitor Suppresses Autophagy and Sensitizes Cancer Cells to Nutrient Stress” (iScience, 2018)

What was measured:
[1] = target: T1, Calcium/calmodulin-dependent protein kinase type IV (Homo sapiens) (UniProt Q16566); assay: Inhibition of human recombinant CaMK4 at 40 nM in presence of ATP by radiometric assay relative to control
T1 sequence (whole entry): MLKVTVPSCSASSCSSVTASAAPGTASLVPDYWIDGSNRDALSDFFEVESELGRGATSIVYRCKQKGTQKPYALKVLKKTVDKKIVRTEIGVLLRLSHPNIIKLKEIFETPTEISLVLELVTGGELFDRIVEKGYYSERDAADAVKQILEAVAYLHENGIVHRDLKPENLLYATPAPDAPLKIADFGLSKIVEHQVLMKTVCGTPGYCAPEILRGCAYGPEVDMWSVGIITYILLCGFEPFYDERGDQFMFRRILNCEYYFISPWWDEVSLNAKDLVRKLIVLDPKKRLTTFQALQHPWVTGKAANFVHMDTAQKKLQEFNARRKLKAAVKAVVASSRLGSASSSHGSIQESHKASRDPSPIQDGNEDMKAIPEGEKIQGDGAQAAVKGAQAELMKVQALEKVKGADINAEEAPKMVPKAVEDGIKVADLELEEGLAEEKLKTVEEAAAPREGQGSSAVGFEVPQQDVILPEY

[2] = target: Tyrosine-protein kinase Fyn (Homo sapiens) (UniProt P06241); assay: Inhibition of human recombinant FYN at 40 nM related to control ULK1
Sequence of Tyrosine-protein kinase Fyn (Homo sapiens) (P06241 2-537 limits assumed): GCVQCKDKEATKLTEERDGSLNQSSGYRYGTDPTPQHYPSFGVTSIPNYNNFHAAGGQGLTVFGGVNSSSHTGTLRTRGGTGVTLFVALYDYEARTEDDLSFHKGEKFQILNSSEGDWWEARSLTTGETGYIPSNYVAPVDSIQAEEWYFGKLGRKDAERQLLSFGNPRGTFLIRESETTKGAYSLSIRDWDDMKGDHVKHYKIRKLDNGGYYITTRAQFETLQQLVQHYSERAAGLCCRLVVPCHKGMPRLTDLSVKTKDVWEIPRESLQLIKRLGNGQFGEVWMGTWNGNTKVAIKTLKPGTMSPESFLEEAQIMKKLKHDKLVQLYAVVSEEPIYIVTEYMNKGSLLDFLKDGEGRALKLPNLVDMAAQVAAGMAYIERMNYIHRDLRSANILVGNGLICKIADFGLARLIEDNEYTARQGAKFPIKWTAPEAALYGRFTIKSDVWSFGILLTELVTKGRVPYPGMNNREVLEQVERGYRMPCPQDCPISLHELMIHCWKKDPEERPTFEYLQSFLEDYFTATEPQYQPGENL

[3] = target: Insulin receptor-related protein (Homo sapiens) (UniProt P14616); assay: Inhibition of human recombinant IRR at 15 nM in presence of ATP by radiometric assay relative to control
Sequence of Insulin receptor-related protein (Homo sapiens) (P14616 27-742 limits assumed): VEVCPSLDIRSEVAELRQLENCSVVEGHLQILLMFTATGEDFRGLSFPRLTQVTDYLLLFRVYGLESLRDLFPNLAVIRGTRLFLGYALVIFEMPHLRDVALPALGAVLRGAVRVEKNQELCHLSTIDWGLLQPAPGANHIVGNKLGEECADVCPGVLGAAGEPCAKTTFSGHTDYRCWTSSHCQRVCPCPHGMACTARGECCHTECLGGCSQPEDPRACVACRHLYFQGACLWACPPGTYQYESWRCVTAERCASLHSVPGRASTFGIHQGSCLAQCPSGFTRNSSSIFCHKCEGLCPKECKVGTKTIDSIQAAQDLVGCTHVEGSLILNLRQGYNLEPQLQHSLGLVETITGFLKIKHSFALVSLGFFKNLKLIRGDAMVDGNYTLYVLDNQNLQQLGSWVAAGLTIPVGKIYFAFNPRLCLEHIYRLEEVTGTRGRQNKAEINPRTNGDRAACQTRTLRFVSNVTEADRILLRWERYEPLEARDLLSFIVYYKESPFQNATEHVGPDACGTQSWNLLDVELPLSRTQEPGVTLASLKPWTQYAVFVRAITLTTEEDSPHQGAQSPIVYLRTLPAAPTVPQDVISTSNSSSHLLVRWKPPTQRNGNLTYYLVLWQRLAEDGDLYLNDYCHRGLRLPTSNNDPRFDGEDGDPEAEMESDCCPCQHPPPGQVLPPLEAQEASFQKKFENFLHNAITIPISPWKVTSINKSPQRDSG
Sequence of Insulin receptor-related protein (Homo sapiens) (P14616 747-1297 limits assumed): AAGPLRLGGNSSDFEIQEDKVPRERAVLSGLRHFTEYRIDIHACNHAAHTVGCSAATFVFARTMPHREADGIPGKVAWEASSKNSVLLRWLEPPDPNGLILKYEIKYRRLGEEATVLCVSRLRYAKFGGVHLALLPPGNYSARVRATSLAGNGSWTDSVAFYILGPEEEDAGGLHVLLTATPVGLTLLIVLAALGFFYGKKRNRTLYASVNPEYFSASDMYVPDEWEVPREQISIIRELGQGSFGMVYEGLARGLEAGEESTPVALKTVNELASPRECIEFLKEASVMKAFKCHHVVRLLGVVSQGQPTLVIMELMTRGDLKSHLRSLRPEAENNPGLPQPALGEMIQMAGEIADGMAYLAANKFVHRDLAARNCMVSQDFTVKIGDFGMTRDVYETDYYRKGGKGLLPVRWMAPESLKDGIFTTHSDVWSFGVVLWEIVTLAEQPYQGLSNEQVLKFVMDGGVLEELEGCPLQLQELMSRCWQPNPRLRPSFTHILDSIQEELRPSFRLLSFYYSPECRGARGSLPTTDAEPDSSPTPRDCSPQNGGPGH

[4] = target: T2, Ephrin type-B receptor 1 (Homo sapiens) (UniProt P54762); assay: Inhibition of human recombinant EphB1 at 15 nM related to control ULK1
T2 sequence (whole entry): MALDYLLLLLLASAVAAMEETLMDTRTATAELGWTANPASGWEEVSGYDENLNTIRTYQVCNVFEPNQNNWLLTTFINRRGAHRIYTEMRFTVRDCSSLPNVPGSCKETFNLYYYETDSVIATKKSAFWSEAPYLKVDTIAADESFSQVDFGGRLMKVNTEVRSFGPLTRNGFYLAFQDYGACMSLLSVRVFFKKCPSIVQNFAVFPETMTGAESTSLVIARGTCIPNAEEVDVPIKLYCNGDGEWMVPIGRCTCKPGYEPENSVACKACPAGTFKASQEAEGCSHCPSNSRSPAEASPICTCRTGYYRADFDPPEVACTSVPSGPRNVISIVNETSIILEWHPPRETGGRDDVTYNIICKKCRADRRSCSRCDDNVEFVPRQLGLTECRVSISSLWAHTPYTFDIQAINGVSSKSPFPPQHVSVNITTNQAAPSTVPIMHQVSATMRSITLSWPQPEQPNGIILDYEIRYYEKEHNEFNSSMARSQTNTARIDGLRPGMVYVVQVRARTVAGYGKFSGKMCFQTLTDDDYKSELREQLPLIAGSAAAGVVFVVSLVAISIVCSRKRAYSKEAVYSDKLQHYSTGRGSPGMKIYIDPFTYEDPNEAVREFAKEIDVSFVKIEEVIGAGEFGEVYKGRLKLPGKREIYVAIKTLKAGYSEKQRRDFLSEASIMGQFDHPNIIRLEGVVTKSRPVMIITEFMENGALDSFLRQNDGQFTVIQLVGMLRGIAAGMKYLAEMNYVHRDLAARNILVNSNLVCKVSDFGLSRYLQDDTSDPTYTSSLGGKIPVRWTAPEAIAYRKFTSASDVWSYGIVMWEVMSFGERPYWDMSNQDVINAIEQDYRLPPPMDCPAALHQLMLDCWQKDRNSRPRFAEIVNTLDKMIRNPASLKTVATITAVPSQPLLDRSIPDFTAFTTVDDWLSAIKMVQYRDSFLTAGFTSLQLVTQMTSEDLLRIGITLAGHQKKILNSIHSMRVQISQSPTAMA

[5] = target: Serine/threonine-protein kinase PAK 4 (Homo sapiens) (UniProt O96013); assay: Inhibition of human recombinant PAK4 at 15 nM related to control ULK1
Sequence of Serine/threonine-protein kinase PAK 4 (Homo sapiens) (O96013 whole entry, looked up): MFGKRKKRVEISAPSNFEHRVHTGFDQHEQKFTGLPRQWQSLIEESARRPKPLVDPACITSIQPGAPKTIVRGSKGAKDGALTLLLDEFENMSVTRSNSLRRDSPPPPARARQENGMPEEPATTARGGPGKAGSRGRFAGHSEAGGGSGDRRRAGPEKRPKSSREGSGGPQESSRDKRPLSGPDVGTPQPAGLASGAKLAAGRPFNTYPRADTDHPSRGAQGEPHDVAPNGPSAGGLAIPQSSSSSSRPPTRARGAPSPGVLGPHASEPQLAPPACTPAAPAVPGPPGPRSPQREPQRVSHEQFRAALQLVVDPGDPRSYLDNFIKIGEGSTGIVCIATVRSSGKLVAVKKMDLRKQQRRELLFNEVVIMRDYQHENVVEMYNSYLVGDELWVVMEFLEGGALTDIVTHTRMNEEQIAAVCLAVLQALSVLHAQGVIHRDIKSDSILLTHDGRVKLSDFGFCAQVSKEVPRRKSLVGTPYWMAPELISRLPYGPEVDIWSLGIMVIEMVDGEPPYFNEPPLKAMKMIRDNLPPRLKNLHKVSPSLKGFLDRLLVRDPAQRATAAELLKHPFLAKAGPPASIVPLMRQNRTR

[6] = target: Ribosomal protein S6 kinase alpha-6 (Homo sapiens) (UniProt Q9UK32); assay: Inhibition of human recombinant RSK4 at 500 nM in presence of ATP by radiometric assay relative to control
Sequence of Ribosomal protein S6 kinase alpha-6 (Homo sapiens) (Q9UK32 whole entry): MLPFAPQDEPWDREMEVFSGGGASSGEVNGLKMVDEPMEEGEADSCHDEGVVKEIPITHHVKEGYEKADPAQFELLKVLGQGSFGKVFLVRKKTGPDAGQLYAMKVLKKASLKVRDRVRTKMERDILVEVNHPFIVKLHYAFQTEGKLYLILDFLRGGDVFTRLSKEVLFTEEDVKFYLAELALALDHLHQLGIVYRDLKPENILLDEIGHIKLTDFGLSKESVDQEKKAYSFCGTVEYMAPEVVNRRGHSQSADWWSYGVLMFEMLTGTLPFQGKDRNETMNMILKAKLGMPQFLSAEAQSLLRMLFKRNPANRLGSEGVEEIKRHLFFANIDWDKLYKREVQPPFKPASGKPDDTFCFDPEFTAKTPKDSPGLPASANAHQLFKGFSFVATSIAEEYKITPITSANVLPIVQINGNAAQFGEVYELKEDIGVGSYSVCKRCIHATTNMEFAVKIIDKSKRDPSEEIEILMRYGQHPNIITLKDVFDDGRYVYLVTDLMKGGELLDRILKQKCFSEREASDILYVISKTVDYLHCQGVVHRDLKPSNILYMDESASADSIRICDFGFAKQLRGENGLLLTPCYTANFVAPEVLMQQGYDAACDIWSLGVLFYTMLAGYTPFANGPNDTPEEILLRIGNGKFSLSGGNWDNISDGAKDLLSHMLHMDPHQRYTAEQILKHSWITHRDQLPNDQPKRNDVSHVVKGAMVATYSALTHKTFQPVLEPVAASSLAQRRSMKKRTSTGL

[7] = target: T3, Eukaryotic elongation factor 2 kinase (Homo sapiens) (UniProt O00418); assay: Inhibition of human recombinant eEF2K at 500 nM related to control ULK1
T3 sequence (whole entry): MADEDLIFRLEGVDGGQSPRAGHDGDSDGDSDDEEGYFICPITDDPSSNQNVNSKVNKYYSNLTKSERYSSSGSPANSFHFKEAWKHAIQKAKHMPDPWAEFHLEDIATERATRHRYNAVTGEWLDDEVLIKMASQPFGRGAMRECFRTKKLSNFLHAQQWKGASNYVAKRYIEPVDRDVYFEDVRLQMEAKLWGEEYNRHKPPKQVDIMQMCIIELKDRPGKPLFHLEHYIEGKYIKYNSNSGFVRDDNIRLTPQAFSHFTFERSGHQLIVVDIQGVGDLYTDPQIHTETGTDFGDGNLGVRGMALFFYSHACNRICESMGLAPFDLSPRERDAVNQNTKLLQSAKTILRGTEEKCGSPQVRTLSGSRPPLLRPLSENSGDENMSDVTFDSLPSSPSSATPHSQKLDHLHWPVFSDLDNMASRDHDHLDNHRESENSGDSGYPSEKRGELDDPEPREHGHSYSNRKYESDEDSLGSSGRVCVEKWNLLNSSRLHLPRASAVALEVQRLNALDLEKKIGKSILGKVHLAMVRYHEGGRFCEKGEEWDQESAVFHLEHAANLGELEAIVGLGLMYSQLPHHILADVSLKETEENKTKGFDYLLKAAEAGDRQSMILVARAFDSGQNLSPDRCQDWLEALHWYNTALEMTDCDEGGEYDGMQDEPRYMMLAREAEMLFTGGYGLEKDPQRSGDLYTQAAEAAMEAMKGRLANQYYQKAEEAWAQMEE

O=C(N[C@@H](C1CC1)C(F)(F)F)c1cc(-c2cnn3cc(-c4ccc(F)cc4)cnc23)cs1
inhibition [1]: 0% | fold change (FC) [2]: 0

CC(C)[C@H](NC(=O)c1cc(-c2cnn3cc(-c4ccc(OCCN5CCCCC5)cc4)cnc23)cs1)C(F)(F)F
inhibition [3]: 2% | fold change (FC) [4]: 0.14 | fold change (FC) [5]: 0

CNC(=O)c1ccccc1Oc1nc(Nc2cc(OC)c(OC)c(OC)c2)ncc1Br
inhibition [6]: 33% | fold change (FC) [7]: 0.19
